Experimental data taken from US12568961B2, “Multi-layer true spherical chitosan encapsulation of absolute (essential) oils for use in pesticidal activity” (GroPro Corporation, priority 2023, dated 2026).
Marks after values point to notes of the source that are not given here.

Columns and labels:
[1] = test system: root-knot nematodes (Meloidogyne spp.); experiment: nematocidal activity on hatched root-knot nematodes in Petri dish; details: 15 nematodes
Description: The tomato roots infected with root-knot nematodes were washed with running water and were then cut to a size of about 1 cm, after which 50 g of the cut roots were placed in a 500 ml round-bottom flask containing 200 ml of 0.5% sodium hypochloride (NaOCl), stopped with a rubber stopper, and shaken vigorously for 3 min to sterilize the roots and at the same time burst the egg bag. Thereafter, the solution was passed through a sieve in which 200 mesh was superimposed on 500 mesh, and washed with distilled water, so the eggs of the root-knot nematodes from which the NaOCl solution was removed were recovered.
Next, the eggs of the root-knot nematodes thus recovered were surface-sterilized with 0.5% NaOCl for 10 min, washed thoroughly with sterile distilled water, placed in a phosphate buffer (1%) containing sterilized normal saline, and hatched in an incubator at 25° C.
Thereafter, each mixed solution was diluted to 2000 ppm, 2 to 3 ml thereof was poured into a Petri dish, after which 15 hatched root-knot nematodes were placed in the Petri dish, and nematocidal activity was measured and the results thereof are shown in Table 1 below.
The number of root-knot nematodes used for the experiment on the number of killed root-knot nematodes was 15 at each dilution factor.

tomato seedlings = experiment: phytotoxicity of geraniol, drenching treatment of potted tomato seedlings; assay type: in vivo; details: 1 week after treatment; for Extent of phytotoxicity (0-5) / Phytotoxicity symptom: 50 ml drench, tomato
Description: Sterilized soil was uniformly mixed, 300 g thereof was then placed in each pot, and tomato seedlings not infected with root-knot nematodes were transplanted thereto.

[2] = cited from earlier work
[3] = test system: Ae. aegypti, Culex species mosquitoes, Anopheles species mosquitoes; experiment: mosquitos and midge adult activity; assay type: in vivo; details: used at 500 to 8,000 ppm
[4] = test system: root-knot nematodes (Meloidogyne spp.); experiment: nematocidal activity assessment of plant-derived materials in development; details: geraniol used at 500 to 4,000 ppm
multiple insects = experiment: insecticidal activity on multiple insects (oxymatrine); assay type: in vivo; details: used at 500 to 6,000 ppm
Black Sigatoka = experiment: field trials against black Sigatoka in bananas; details: applied as tank mixes with tea tree oil
Description: Tea tree oil was used in disclosed experiments and trials as an 54 mulsifiable concentrated formulation. For field trials in bananas, tea tree oil was applied similarly to conventional synthetic fungicides, with mineral oil, surfactants, and/or just water. The following fungicides, registered for use against black sigatoka in bananas, were tested for comparison: azoxystrobin (Bankit 25 SC), trifloxystrobin (Flint, Tega 50 WG), difenoconazole (Score, Sico 25 EC), mancozeb (43 SC Duwest 80 WP), flutriafol (Impact, 125 SC) and tridemorph (Calixin 86 OL).

Question: Which results are given for C/C=C(\C)C(=O)O[C@H]1C[C@@H](OC(C)=O)[C@@]2(C(=O)OC)CO[C@H]3[C@@H](O)[C@@](C)([C@]45O[C@@]4(C)[C@H]4C[C@@H]5O[C@@H]5OC=C[C@@]54O)[C@H]4[C@]1(CO[C@]4(O)C(=O)OC)[C@@H]32 [Azadirachtin, azadirachtin]?
Answer: number of killed root-knot nematodes ([1]; 2000 ppm, 1 day): 7; number of killed root-knot nematodes ([1]; 2000 ppm, 2 days): 8; number of killed root-knot nematodes ([1]; 2000 ppm, 3 days): 10

Question: For CC(C)=CCC/C(C)=C/CO [Geraniol, 3,7-dimethyl-2,6-octadien-1-ol], which “concentrations causing phytotoxicity in tomato seedlings” value (tomato seedlings; drench) is on record?
Answer: Its value is ≥ 4,000 ppm.

Question: And the “concentrations with no effect on tomato seedlings” value (tomato seedlings; drench)?
Answer: Its value is ≤ 3,000 ppm.

Question: And the “Extent of phytotoxicity (0-5)” value (tomato seedlings; geraniol 100 ppm)?
Answer: Its value is 0.

Question: What about the Phytotoxicity symptom (tomato seedlings; geraniol 100 ppm) of the same compound?
Answer: Its Phytotoxicity symptom is “No”.

Question: What about the “Extent of phytotoxicity (0-5)” value (tomato seedlings; geraniol 200 ppm) of the same compound?
Answer: The value was 0.

Question: What about the Phytotoxicity symptom (tomato seedlings; geraniol 200 ppm) of the same compound?
Answer: The Phytotoxicity symptom was “No”.

Question: What about the “Extent of phytotoxicity (0-5)” value (tomato seedlings; geraniol 330 ppm) of the same compound?
Answer: Its value is 0.

Question: What about the Phytotoxicity symptom (tomato seedlings; geraniol 330 ppm) of the same compound?
Answer: The Phytotoxicity symptom was “No”.

Question: And the “Extent of phytotoxicity (0-5)” value (tomato seedlings; geraniol 500 ppm)?
Answer: Its value is 0.

Question: And the Phytotoxicity symptom (tomato seedlings; geraniol 500 ppm)?
Answer: The Phytotoxicity symptom was “No”.

Question: What about the “Extent of phytotoxicity (0-5)” value (tomato seedlings; geraniol 1,000 ppm) of the same compound?
Answer: The value was 0.

Question: What about the Phytotoxicity symptom (tomato seedlings; geraniol 1,000 ppm) of the same compound?
Answer: Its Phytotoxicity symptom is “No”.

Question: And the “Extent of phytotoxicity (0-5)” value (tomato seedlings; geraniol 2,000 ppm)?
Answer: The value was 0.

Question: And the Phytotoxicity symptom (tomato seedlings; geraniol 2,000 ppm)?
Answer: Its Phytotoxicity symptom is “No”.

Question: And the “Extent of phytotoxicity (0-5)” value (tomato seedlings; geraniol 3,000 ppm)?
Answer: Its value is 0.

Question: What about the Phytotoxicity symptom (tomato seedlings; geraniol 3,000 ppm) of the same compound?
Answer: The Phytotoxicity symptom was “No”.

Question: And the “Extent of phytotoxicity (0-5)” value (tomato seedlings; geraniol 4,000 ppm)?
Answer: The value was 5.

Question: And the Phytotoxicity symptom (tomato seedlings; geraniol 4,000 ppm)?
Answer: The Phytotoxicity symptom was “Withered”.

Question: And the “Extent of phytotoxicity (0-5)” value (tomato seedlings; geraniol 5,000 ppm)?
Answer: Its value is 5.

Question: And the Phytotoxicity symptom (tomato seedlings; geraniol 5,000 ppm)?
Answer: The Phytotoxicity symptom was “Withered”.

Question: What about the “Extent of phytotoxicity (0-5)” value (tomato seedlings; geraniol 10,000 ppm) of the same compound?
Answer: The value was 5.

Question: And the Phytotoxicity symptom (tomato seedlings; geraniol 10,000 ppm)?
Answer: The Phytotoxicity symptom was “Withered”.

Question: What about the “Extent of phytotoxicity (0-5)” value (tomato seedlings; geraniol 20,000 ppm) of the same compound?
Answer: The value was 5.

Question: And the Phytotoxicity symptom (tomato seedlings; geraniol 20,000 ppm)?
Answer: Its Phytotoxicity symptom is “Withered”.

Question: What about the solubility in water [2] of the same compound?
Answer: Its solubility in water is “insoluble in water”.

Question: And the “mosquito and midge control” value [3]?
Answer: Its value is “superior mosquito and midge control was demonstrated without plant phytotoxicity or water toxicology”.

Question: And the “number of killed root-knot nematodes” value ([1]; 2000 ppm, 1 day)?
Answer: The value was 15^a.

Question: What about the “number of killed root-knot nematodes” value ([1]; geraniol 2,000 ppm, 1 day) of the same compound?
Answer: Its value is 15.

Question: What about the nematocidal control [4] of the same compound?
Answer: Its nematocidal control is “superior nematocidal control was demonstrated without plant phytotoxicity”.

Question: Which insecticidal control (multiple insects) does the source give for O=C1CCC[C@@H]2[C@H]3CCC[N+]4([O-])CCC[C@@H](CN12)[C@@H]34 (some centres unmarked) [Oxymatrine, oxymatrine] here?
Answer: Its insecticidal control is “superior insecticidal control was demonstrated without plant phytotoxicity”.

Question: Which “control of Black Sigatoka” value (Black Sigatoka) does the source give for CC1COC(Cn2cncn2)(c2ccc(Oc3ccc(Cl)cc3)cc2Cl)O1 (centres unmarked) [difenoconazole] here?
Answer: The value was “effectively controlled”.

Question: Which “control of Black Sigatoka” value (Black Sigatoka) does the source give for CON=C(C(=O)OC)c1ccccc1CON=C(C)c1cccc(C(F)(F)F)c1 [trifloxystrobin] here?
Answer: Its value is “effectively controlled”.

Question: With pyrethrin as the compound, how does the “number of killed root-knot nematodes” value ([1]; 2000 ppm, 1 day) read?
Answer: Its value is 5.

Question: And the “number of killed root-knot nematodes” value ([1]; 2000 ppm, 2 days)?
Answer: Its value is 6.

Question: What about the “number of killed root-knot nematodes” value ([1]; 2000 ppm, 3 days) of the same compound?
Answer: The value was 11.
